Reference: ChEMBL document CHEMBL1268952, “Design, synthesis, and evaluation of indolinones as inhibitors of the transforming growth factor β receptor I (TGFβRI)” (J Med Chem, 2010)

Columns and labels:
[1] = Inhibition of PKB at 1 uM; values are per cent of control
[2] = molecular target: Protein kinase C alpha type (Homo sapiens) (UniProt P17252); assay: Inhibition of PKCalpha at 1 uM; values are per cent of control
[3] = Inhibition of AMPK at 1 uM; values are per cent of control
[4] = molecular target: T1, MAP kinase-activated protein kinase 5 (Homo sapiens) (UniProt Q8IW41); assay: Inhibition of PRAK at 1 uM; values are per cent of control
T1 sequence (whole entry): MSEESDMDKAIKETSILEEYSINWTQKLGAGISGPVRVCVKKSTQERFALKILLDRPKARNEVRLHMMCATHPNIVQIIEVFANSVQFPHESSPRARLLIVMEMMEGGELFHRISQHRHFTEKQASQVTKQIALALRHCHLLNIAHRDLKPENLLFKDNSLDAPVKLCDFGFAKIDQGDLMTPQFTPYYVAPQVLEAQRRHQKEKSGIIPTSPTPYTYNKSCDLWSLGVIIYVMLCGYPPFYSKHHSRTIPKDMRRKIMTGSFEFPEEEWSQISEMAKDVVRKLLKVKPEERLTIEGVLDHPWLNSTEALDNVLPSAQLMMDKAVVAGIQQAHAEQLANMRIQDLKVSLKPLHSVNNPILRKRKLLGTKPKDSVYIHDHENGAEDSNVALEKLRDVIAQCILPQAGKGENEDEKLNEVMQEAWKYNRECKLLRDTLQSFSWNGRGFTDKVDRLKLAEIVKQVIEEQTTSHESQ

[5] = molecular target: Tyrosine-protein kinase CSK (Homo sapiens) (UniProt P41240); assay: Inhibition of CSK at 1 uM; values are per cent of control
[6] = molecular target: T2, Serine/threonine-protein kinase Chk1 (Homo sapiens) (UniProt O14757); assay: Inhibition of CHK1 at 1 uM; values are per cent of control
T2 sequence (whole entry): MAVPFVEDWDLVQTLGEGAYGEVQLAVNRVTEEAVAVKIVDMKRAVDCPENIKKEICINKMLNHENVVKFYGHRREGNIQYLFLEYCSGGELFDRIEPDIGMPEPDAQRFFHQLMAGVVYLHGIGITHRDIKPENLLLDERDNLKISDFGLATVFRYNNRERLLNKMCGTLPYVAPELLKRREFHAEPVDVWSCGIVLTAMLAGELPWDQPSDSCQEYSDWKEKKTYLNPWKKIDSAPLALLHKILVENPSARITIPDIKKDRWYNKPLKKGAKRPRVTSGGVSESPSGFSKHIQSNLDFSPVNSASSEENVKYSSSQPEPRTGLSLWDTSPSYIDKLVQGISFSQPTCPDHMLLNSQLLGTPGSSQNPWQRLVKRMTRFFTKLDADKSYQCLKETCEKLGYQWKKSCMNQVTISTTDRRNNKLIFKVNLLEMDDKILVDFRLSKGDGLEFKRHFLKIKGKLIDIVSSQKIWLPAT

[7] = molecular target: Rho-associated protein kinase 2 (Homo sapiens) (UniProt O75116); assay: Inhibition of ROCK2 at 1 uM; values are per cent of control
Sequence of Rho-associated protein kinase 2 (Homo sapiens) (O75116 whole entry, looked up): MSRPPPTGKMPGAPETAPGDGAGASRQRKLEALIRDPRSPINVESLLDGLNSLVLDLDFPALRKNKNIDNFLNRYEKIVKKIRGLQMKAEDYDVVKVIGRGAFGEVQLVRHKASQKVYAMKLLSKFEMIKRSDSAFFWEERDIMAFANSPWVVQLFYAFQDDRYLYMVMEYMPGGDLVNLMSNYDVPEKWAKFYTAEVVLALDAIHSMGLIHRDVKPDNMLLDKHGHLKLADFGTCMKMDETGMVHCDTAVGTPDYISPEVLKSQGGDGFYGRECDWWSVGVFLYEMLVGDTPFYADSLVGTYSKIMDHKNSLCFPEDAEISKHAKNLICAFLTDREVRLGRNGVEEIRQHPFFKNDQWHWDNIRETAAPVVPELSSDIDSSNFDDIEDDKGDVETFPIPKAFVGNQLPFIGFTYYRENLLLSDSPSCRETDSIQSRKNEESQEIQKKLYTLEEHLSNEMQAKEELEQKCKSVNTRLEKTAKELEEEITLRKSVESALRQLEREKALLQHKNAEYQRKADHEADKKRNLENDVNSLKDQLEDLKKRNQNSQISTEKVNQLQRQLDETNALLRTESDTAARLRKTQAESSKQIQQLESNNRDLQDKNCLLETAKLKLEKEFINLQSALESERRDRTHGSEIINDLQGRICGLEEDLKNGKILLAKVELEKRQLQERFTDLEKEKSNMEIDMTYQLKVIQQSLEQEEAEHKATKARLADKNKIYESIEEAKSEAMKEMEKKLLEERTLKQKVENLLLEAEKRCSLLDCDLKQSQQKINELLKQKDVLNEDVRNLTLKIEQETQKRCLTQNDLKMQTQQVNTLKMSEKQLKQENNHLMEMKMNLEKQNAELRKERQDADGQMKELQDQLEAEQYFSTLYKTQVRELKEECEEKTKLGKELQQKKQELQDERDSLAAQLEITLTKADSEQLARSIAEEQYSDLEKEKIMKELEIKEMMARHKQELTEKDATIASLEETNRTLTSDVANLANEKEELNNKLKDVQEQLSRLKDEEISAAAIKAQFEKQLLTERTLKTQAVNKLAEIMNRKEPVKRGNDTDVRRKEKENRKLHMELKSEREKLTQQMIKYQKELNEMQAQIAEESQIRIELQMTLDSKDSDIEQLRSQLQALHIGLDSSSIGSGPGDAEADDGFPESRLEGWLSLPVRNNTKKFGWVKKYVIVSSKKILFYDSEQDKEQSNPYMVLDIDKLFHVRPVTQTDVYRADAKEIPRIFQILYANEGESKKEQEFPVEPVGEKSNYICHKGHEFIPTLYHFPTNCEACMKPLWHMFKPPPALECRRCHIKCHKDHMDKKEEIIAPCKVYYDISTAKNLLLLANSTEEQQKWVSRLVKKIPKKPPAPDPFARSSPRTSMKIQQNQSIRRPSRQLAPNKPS

[8] = molecular target: Mitogen-activated protein kinase 14 (Homo sapiens) (UniProt Q16539); assay: Inhibition of p38alpha at 1 uM; values are per cent of control
Sequence of Mitogen-activated protein kinase 14 (Homo sapiens) (Q16539 whole entry): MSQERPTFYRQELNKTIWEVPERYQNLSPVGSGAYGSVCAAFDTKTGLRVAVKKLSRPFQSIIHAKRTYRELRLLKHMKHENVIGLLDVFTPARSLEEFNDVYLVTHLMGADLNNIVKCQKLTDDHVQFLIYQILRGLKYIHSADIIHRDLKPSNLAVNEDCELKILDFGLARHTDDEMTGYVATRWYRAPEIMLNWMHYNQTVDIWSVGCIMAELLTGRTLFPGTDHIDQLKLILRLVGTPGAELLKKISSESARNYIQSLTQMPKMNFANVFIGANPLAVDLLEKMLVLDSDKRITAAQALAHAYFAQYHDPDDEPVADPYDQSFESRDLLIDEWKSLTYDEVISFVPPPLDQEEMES

[9] = molecular target: Ribosomal protein S6 kinase alpha-5 (Homo sapiens) (UniProt O75582); assay: Inhibition of MSK1 at 1 uM; values are per cent of control
Sequence of Ribosomal protein S6 kinase alpha-5 (Homo sapiens) (O75582 whole entry, looked up): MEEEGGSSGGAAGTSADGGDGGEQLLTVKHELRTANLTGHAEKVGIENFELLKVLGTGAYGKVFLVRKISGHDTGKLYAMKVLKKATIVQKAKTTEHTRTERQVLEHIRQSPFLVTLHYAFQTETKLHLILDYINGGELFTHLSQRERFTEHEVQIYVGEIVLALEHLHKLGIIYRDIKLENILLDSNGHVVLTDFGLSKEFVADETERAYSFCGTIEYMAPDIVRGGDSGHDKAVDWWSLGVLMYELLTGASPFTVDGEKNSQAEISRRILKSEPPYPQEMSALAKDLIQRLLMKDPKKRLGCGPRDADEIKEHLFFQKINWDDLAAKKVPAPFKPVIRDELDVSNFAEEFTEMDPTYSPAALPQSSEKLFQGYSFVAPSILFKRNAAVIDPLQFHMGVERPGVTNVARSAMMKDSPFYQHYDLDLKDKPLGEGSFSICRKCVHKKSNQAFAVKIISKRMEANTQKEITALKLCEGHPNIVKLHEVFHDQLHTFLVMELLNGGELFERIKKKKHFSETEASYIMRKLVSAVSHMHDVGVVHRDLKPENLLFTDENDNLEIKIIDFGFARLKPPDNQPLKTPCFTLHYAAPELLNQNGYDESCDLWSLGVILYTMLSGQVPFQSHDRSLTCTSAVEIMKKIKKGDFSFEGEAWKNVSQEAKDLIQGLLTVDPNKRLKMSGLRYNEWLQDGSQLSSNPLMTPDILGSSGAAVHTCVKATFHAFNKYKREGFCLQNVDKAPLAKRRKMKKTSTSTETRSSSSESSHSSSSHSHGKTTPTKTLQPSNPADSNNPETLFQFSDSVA

[10] = Inhibition of CK2 at 1 uM; values are per cent of control
[11] = molecular target: Ribosomal protein S6 kinase beta-1 (Homo sapiens) (UniProt P23443); assay: Inhibition of S6K1 at 1 uM; values are per cent of control
Sequence of Ribosomal protein S6 kinase beta-1 (Homo sapiens) (P23443 whole entry, looked up): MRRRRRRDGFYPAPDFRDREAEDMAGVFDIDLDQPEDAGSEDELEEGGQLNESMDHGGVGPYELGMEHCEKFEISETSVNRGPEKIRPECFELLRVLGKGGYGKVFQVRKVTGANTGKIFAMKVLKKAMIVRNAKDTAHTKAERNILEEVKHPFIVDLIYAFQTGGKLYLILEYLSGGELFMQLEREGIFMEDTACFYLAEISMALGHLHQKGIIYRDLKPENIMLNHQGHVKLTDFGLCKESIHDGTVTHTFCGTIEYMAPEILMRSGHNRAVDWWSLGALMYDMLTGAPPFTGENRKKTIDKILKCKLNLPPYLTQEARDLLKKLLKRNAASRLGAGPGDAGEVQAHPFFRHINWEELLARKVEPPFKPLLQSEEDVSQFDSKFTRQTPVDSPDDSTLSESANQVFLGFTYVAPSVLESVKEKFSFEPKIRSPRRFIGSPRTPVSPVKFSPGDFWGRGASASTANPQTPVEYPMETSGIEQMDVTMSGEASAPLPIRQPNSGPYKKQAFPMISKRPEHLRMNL

[12] = molecular target: Dual specificity mitogen-activated protein kinase kinase 1 (Homo sapiens) (UniProt Q02750); assay: Inhibition of MKK1 at 1 uM; values are per cent of control
Sequence of Dual specificity mitogen-activated protein kinase kinase 1 (Homo sapiens) (Q02750 whole entry): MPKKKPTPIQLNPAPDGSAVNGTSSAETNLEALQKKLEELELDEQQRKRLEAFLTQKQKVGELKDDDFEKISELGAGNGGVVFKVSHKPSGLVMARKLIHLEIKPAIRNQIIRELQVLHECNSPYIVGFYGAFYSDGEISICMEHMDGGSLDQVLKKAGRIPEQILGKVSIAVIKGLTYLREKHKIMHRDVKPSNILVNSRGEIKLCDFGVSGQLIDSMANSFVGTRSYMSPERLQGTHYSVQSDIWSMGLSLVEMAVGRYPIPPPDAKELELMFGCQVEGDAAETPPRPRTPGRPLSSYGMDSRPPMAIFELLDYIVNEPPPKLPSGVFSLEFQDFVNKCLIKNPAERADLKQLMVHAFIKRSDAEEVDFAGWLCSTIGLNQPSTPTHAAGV

[13] = molecular target: Glycogen synthase kinase-3 beta (Homo sapiens) (UniProt P49841); assay: Inhibition of GSK3-beta at 1 uM; values are per cent of control
Sequence of Glycogen synthase kinase-3 beta (Homo sapiens) (P49841 whole entry, looked up): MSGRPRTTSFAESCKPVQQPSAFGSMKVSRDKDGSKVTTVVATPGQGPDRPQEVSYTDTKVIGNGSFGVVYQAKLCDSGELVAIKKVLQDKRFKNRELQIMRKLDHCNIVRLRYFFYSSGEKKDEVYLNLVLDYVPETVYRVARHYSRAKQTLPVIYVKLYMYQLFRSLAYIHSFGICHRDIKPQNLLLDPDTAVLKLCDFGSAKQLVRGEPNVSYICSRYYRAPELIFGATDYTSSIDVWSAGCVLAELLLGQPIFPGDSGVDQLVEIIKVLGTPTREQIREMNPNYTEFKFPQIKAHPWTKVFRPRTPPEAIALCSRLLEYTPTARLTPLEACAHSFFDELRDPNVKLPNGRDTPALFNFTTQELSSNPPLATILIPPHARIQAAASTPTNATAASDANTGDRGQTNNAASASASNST

[14] = molecular target: T3, Serine/threonine-protein kinase Nek2 (Homo sapiens) (UniProt P51955); assay: Inhibition of NEK2A at 1 uM; values are per cent of control
T3 sequence (whole entry): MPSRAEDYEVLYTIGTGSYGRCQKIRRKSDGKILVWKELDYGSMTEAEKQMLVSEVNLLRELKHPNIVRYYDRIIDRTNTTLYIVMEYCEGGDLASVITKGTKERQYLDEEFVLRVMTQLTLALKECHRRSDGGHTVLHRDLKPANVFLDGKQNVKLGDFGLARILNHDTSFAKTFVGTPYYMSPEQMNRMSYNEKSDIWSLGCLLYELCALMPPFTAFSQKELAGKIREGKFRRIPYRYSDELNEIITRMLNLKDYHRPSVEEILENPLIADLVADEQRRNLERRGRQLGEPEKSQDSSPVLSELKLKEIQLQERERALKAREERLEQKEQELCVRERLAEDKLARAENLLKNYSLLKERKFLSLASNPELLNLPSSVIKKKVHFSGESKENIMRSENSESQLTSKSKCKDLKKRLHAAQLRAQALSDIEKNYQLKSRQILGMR

[15] = molecular target: Dual specificity mitogen-activated protein kinase kinase 1 (Homo sapiens) (UniProt Q02750); assay: Inhibition of MKK1A at 1 uM; values are per cent of control
[16] = molecular target: Cyclin-dependent kinase 2/cyclin A (Homo sapiens) (UniProt P24941+P20248+P78396); assay: Inhibition of CDK2/cyclin A at 1 uM; values are per cent of control
[17] = molecular target: Dual specificity tyrosine-phosphorylation-regulated kinase 1A (Homo sapiens) (UniProt Q13627); assay: Inhibition of DYRK1A at 1 uM; values are per cent of control
[18] = molecular target: Mitogen-activated protein kinase 8 (Homo sapiens) (UniProt P45983); assay: Inhibition of SAPK1c at 2 uM
Sequence of Mitogen-activated protein kinase 8 (Homo sapiens) (P45983 whole entry): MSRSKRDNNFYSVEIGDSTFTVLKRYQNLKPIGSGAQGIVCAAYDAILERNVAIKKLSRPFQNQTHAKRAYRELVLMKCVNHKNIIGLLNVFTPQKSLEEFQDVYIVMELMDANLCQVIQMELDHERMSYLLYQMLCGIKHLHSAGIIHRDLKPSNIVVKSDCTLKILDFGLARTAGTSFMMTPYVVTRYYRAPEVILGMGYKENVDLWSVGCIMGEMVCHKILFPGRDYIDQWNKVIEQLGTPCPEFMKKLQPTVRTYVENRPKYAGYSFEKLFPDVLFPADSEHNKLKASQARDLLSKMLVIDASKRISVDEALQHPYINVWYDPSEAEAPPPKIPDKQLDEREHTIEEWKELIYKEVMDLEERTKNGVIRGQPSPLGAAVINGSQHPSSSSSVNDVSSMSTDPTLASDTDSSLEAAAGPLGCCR

[19] = molecular target: Mitogen-activated protein kinase 1 (Homo sapiens) (UniProt P28482); assay: Inhibition of ERK2 at 1 uM; values are per cent of control
[20] = Inhibition of PKA at 1 uM; values are per cent of control
[21] = Inhibition of CK1 at 1 uM; values are per cent of control

| SMILES | residual activity [1] | residual activity [2] | residual activity [3] | residual activity [4] | residual activity [5] | residual activity [6] | residual activity [7] | residual activity [8] | residual activity [9] | residual activity [10] | residual activity [11] | residual activity [12] | residual activity [13] | residual activity [14] | residual activity [15] | residual activity [16] | residual activity [17] | residual activity [18] | residual activity [19] | residual activity [20] | also measured |
| --- | --- | --- | --- | --- | --- | --- | --- | --- | --- | --- | --- | --- | --- | --- | --- | --- | --- | --- | --- | --- | --- |
| CCNCc1ccc(N/C(=C2\C(=O)Nc3cc(C(=O)N(C)CC)ccc32)c2ccccc2)cc1 | 92% | 85% | 81% | 70% | 78% | 85% | 80% | 85% | 83% | 86% | 89% | 61% | 56% | 72% | 50% | 87% | 86% | 91% | 87% | 96% | residual activity [21]: 90% |
| CCNC(=O)c1ccc2c(c1)NC(=O)/C2=C(\Nc1ccc(CN(C)C)cc1)c1ccccc1 | 106% | 89% | 85% | 96% | 96% | 84% | 95% | 121% | 104% | 95% | 101% | 59% | 114% | 98% | 93% | 103% | 105% | 99% | 98% | 90% | residual activity [21]: 102% |
| CCNC(=O)c1ccc2c(c1)NC(=O)/C2=C(\Nc1ccc(N(CCN(C)C)S(C)(=O)=O)cc1)c1ccccc1 | 90% | 100% | 74% | 67% | 83% | 51% | 88% | 110% | 105% | 94% | 100% | 53% | 124% | 70% | 80% | 100% | 96% | 105% | 104% | 75% | residual activity [21]: 100% |

Second part, led by results:

| residual activity [1] | residual activity [2] | residual activity [3] | residual activity [4] | residual activity [5] | residual activity [6] | residual activity [7] | residual activity [8] | residual activity [9] | residual activity [10] | residual activity [11] | residual activity [12] | residual activity [13] | residual activity [14] | residual activity [15] | residual activity [16] | residual activity [17] | residual activity [18] | residual activity [19] | residual activity [20] | SMILES | also measured |
| --- | --- | --- | --- | --- | --- | --- | --- | --- | --- | --- | --- | --- | --- | --- | --- | --- | --- | --- | --- | --- | --- |
| 88% | 29% | 4% | 38% | 32% | 6% | 54% | 96% | 8% | 90% | 12% | 4% | 1% | 39% | 0% | 38% | 18% | 8% | 77% | 12% | O=C1Nc2ccccc2/C1=C(/Nc1ccc(CN2CCCCC2)cc1)c1ccccc1 | residual activity [21]: 17% |
| 93% | 28% | 2% | 59% | 74% | 8% | 79% | 91% | 36% | 73% | 76% | 12% | 5% | 81% | 4% | 39% | 45% | 90% | 95% | 69% | CN(C)C(=O)c1ccc2c(c1)/C(=C(/Nc1ccc(CN3CCCCC3)cc1)c1ccccc1)C(=O)N2 | residual activity [21]: 95% |
| 97% | 88% | 80% | 87% | 72% | 74% | 88% | 92% | 92% | 98% | 96% | 48% | 82% | 96% | 47% | 110% | 88% | 89% | 96% | 96% | CCN(C)C(=O)c1ccc2c(c1)NC(=O)/C2=C(\Nc1ccc(CN2CCCCC2)cc1)c1ccccc1 | residual activity [21]: 108% |
